Experimental findings from PMC2928168, “Na^+-stimulated ATPase of alkaliphilic halotolerant cyanobacterium Aphanothece halophytica translocates Na^+ into proteoliposomes via Na^+ uniport mechanism” (BMC Biochemistry, 2010) are described below.

The assay relates to T1, Na+-stimulated ATPase (likely F1F0-ATPase).
T1 construct: gene atpD
Briefly: inorganic phosphate release, Lineweaver-Burk plot. In kind it is biochemical, Aphanothece halophytica. Particulars: 20 mM Tris-HCl pH 7.6, 5 mM MgCl2, 10 mM NaCl; detergent-solubilised enzyme; read-out: apparent Km.

On to `Nc1ncnc2c1ncn2[C@@H]1O[C@H](COP(=O)(O)OP(=O)(O)OP(=O)(O)O)[C@@H](O)[C@H]1O` [ATP], for which the Km was found to be 1200 µM.
